Tests used:
[1] = molecular target: T1, recombinant, human protein tyrosine phosphatase (PTP) 1B (hPTP1B) (Homo sapiens, UniProt P18031); assay: Inhibition of tri-phosphorylated insulin receptor dodecaphosphopeptide dephosphorylation by hPTP1B; assay type: biochemical; conditions: 50 μM IR triphosphopeptide substrate, 5 min preincubation and 5 min reaction at 37° C., malachite green-ammonium molybdate phosphate detection
T1 construct: made in house
T1 sequence (P18031 1-435): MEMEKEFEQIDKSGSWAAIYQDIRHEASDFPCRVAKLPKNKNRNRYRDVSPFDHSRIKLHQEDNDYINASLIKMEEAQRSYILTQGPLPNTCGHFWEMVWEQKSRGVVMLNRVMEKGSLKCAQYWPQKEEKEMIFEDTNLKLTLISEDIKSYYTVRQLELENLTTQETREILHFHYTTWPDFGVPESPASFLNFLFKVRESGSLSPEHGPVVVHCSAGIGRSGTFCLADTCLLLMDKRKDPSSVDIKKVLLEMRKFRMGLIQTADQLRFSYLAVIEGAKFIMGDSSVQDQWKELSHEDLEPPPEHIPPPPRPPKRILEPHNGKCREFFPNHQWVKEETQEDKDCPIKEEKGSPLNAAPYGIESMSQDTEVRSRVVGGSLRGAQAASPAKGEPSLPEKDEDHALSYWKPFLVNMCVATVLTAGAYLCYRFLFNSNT

SMILES	IC50 [1]	melting point
Cc1cc(COCCCCCCNC(=O)c2cc(-c3ccc(F)c(Cl)c3)c(OCC(=O)O)c(-c3ccc(F)c(Cl)c3)c2)c(C)o1 [Example 26, {3,3″-Dichloro-5′-(6-(2,5-dimethyl-furan-3-ylmethoxy)-hexylcarbamoyl]-4-4″-difluoro-[1,1′;3′,1″]terphenyl-2′-yloxy}-acetic acid]	207 nM	90 to 91.2 °C
Cc1cc(COCCCCCCNC(=O)c2cc(-c3cccc(C(F)(F)F)c3)c(OCC(=O)O)c(-c3cccc(C(F)(F)F)c3)c2)c(C)o1 [Example 30, {5′-[6-(2,5-Dimethyl-furan-3-ylmethoxy)-hexylcarbamoyl]-3,3″-bis-trifluoromethyl-[1,1′;3′,1″]terphenyl-2′-yloxy}-acetic acid]	220 nM	107.9 to 108.5 °C
CCCCCCCCOc1cc(-c2cccc(NC(C)=O)c2)c(OCC(=O)O)c(-c2cccc(NC(C)=O)c2)c1 [Example 47, (3,3″-Bis-acetylamino-5′-octyloxy-[1,1′;3′,1″]terphenyl-2′-yloxy)acetic acid]	300 nM	> 100 °C (dec.)
CCCCCCCCOc1cc(-c2cccc([N+](=O)[O-])c2)c(OCC(=O)O)c(-c2cccc([N+](=O)[O-])c2)c1 [Example 49, (3,3″-Dinitro-5′-octyloxy-[1,1′;3′,1″]terphenyl-2′-yloxy)acetic acid]	400 nM	129 to 132 °C
O=C(O)COc1c(-c2cccc(Cl)c2)cc(C(=O)NCCCCCCc2ccccc2)cc1-c1cccc(Cl)c1 [Example 80, [3,3″-Dichloro-5′-(6-phenyl-hexylcarbamoyl)-[1,1′;3′,1″]terphenyl-2′-yloxy]acetic acid]	600 nM	178 to 181 °C
COc1ccc(-c2cc(C(=O)N(C)CCCCCCCCc3ccccc3)cc(-c3cccc(C(F)(F)F)c3)c2OCC(=O)O)cc1 [Example 81, {4″-Methoxy-5′-[methyl-(8-phenyl-octyl)-carbamoyl]-3-trifluoromethyl-[1,1′;3′1″]-terphenyl-2′-yloxy}acetic acid]	330 nM	> 39 °C (dec.)
CN(CCCCCCCCc1ccccc1)C(=O)c1cc(-c2cccc(Cl)c2)c(OCC(=O)O)c(-c2cccc(Cl)c2)c1 [Example 82, {3,3″-Dichloro-5′-[methyl-(8-phenyl-octyl)-carbamoyl]-[1,1′;3′1″]terphenyl-2′-yloxy}acetic acid]	179 nM	> 44 °C (dec.)
O=C(O)COc1c(-c2cccc(F)c2)cc(C(=O)NCCCCCCCCc2ccccc2)cc1-c1cccc(F)c1 [Example 83, [3,3″-Difluoro-5′-(8-phenyl-octylcarbamoyl)-[1,1′;3′,1″]terphenyl-2′-yloxy]acetic acid]	536 nM	> 58 °C (dec.)
CN(CCCCCCCCc1ccccc1)C(=O)c1cc(-c2cccc(F)c2)c(OCC(=O)O)c(-c2cccc(F)c2)c1 [Example 84]	1030 nM	> 43 °C (dec.)
O=C(O)COc1c(-c2cccc(Cl)c2)cc(C(=O)NCCCCCCCCSc2nc3ccccc3o2)cc1-c1cccc(Cl)c1 [Example 87, {5′-[8-(Benzoxazol-2-ylsulfanyl)-octylcarbamoyl]-3,3″-dichloro-[1,1′;3′1″]-terphenyl-2′-yloxy}acetic acid]	332 nM	> 68 °C (dec.)
N#Cc1cccc(OCCCCCCCCNC(=O)c2cc(-c3cccc(Cl)c3)c(OCC(=O)O)c(-c3cccc(Cl)c3)c2)c1 [Example 89, {3,3″-Dichloro-5′-[8-(3-cyano-phenoxy)-octylcarbamoyl]-[1,1′;3′1″]terphenyl-2′-yloxy}acetic acid]	173 nM	> 61 °C (dec.)
Cc1cc(OCCCCCCCCNC(=O)c2cc(-c3cccc(Cl)c3)c(OCC(=O)O)c(-c3cccc(Cl)c3)c2)ccc1F [Example 91, {3,3″-Dichloro-5′-[8-(4-fluoro-3-methyl-phenoxy)-octylcarbamoyl]-[1,1′;3′1″]terphenyl-2′-yloxy}acetic acid]	313 nM	138 to 140 °C
O=C(O)COc1c(-c2cccc(Cl)c2)cc(C(=O)NCCCCCCCCn2ccnc2)cc1-c1cccc(Cl)c1 [Example 92, [3,3″-Dichloro-5′-(8-imidazol-1-yl-octylcarbamoyl)-[1,1′;3′1″]terphenyl-2′-yloxy]acetic acid]	471 nM	> 109 °C (dec.)
O=C(O)COc1c(-c2cccc(Cl)c2)cc(C(=O)NCCCCCCOC(=O)Nc2ccc(Oc3ccccc3)cc2)cc1-c1cccc(Cl)c1 [Example 95, {3,3″-Dichloro-5′-[6-(4-phenoxy-phenylcarbamoyloxy)-hexylcarbamoyl]-[1,1′;3′1″]terphenyl-2′-yloxy}acetic acid]	641 nM	> 75 °C (dec.)
COc1ccc2c(ccn2CCCCCCCCNC(=O)c2cc(-c3cccc(Cl)c3)c(OCC(=O)O)c(-c3cccc(Cl)c3)c2)c1 [Example 97, {3,3″-Dichloro-5′-[8-(5-methoxy-indol-1-yl)-octylcarbamoyl]-[1,1′;3′1″]terphenyl-2′-yloxy}acetic acid]	186 nM	> 70 °C (dec.)
COc1ccc2c(c1)cc(C)n2CCCCCCCCNC(=O)c1cc(-c2cccc(Cl)c2)c(OCC(=O)O)c(-c2cccc(Cl)c2)c1 [Example 99, {3,3″-Dichloro-5′-[8-(5-methoxy-2-methyl-indol-1-yl)-octylcarbamoyl]-[1,1′;3′1″]-terphenyl-2′-yloxy}acetic acid]	267 nM	> 75 °C (dec.)
O=C(O)COc1c(-c2cccc(Cl)c2)cc(C(=O)NCC2(COCCCCc3ccccc3)CC2)cc1-c1cccc(Cl)c1 [Example 100, (3,3″-Dichloro-5′-{[1-(4-phenyl-butoxymethyl)-cyclopropylmethyl]-carbamoyl}-[1,1′;3′1″]terphenyl-2′-yloxy)acetic acid]	389 nM	> 52 °C (dec.)
Cc1cccc(-c2cc(C(=O)NCCCCCCCc3ccccc3)cc(-c3cccc(C)c3)c2OCC(=O)O)c1 [Example 145, [3,3″-Dimethyl-5′-(7-phenyl-heptylcarbamoyl)-[1,1′:3′,1″]terphenyl-2′-yloxy]acetic acid]	1150 nM	58 to 62 °C

Now those with a lower IC50 [1], led by results:

IC50 [1]	melting point	SMILES
162 nM	130 to 132 °C	CC(C)(COc1c(-c2cccc(C(F)(F)F)c2)cc(C(=O)NCCCCCCCc2ccccc2)cc1-c1cccc(C(F)(F)F)c1)C(=O)O [Example 129, 2,2-Dimethyl-3-[5′-(7-phenyl-heptylcarbamoyl)-3,3″-bis-trifluoromethyl-[1,1′:3′,1″]terphenyl-2′-yloxy]-propionic acid]
145 nM	75 to 77 °C	CCCCCCCCOc1cc(-c2cccc(C(F)(F)F)c2)c(OCC(=O)O)c(-c2cccc(C(F)(F)F)c2)c1 [Example 48, (5′-Octyloxy-3,3″-bis-trifluoromethyl-[1,1′;3′,1″]terphenyl-2′-yloxy)acetic acid]
137 nM	> 84 °C (dec.)	O=C(O)COc1c(-c2cccc(Cl)c2)cc(C(=O)NCCCCCCCCn2ccc3ccccc32)cc1-c1cccc(Cl)c1 [Example 88, [3,3″-Dichloro-5′-(8-indol-1-yl-octylcarbamoyl)-[1,1′;3′1″]terphenyl-2′-yloxy]acetic acid]
137 nM	141 to 144 °C	O=C(O)COc1c(-c2cccc(Cl)c2)cc(C(=O)NCCCCCCCCn2ccc3cc(F)ccc32)cc1-c1cccc(Cl)c1 [Example 96, {3,3″-Dichloro-5′-[8-(5-fluoro-indol-1-yl)-octylcarbamoyl]-[1,1′;3′1″]terphenyl-2′-yloxy}acetic acid]
132 nM	> 172 °C (dec.)	Cc1ccc2c(c1)cc(C)n2CCCCCCCCNC(=O)c1cc(-c2cccc(Cl)c2)c(OCC(=O)O)c(-c2cccc(Cl)c2)c1 [Example 98, {3,3″-Dichloro-5′-[8-(2,5-dimethyl-indol-1-yl)-octylcarbamoyl]-[1,1′;3′1″]-terphenyl-2′-yloxy}acetic acid]
121 nM	113 to 115.5 °C	CCCCCCCCOc1cc(-c2cccc(Cl)c2)c(OCC(=O)O)c(-c2cccc(Cl)c2)c1 [Example 46, (3,3″-Dichloro-5′-octyloxy-[1,1′;3′,1″]terphenyl-2′-yloxy)acetic acid]
118 nM	> 136 °C (dec.)	O=C(O)COc1c(-c2ccccc2)cc(-c2c3ccccc3cc3sc4ccccc4c23)cc1-c1ccccc1 [Example 37, (5′-Benzo[b]naphtho[2,3-d]thiophen-11-yl-[1,1′;3′,1″]terphenyl-2′-yloxy)-acetic acid]
100 nM	128 to 131 °C	O=C(O)COc1c(-c2cccc(Cl)c2)cc(C(=O)NCCCCCCCCOCc2ccc(Cl)cc2)cc1-c1cccc(Cl)c1 [Example 90, {3,3″-Dichloro-5′-[8-(4-chloro-benzyloxy)-octylcarbamoyl]-[1,1′;3′1″]terphenyl-2′-yloxy}acetic acid]
24 nM	90.5 to 92 °C	CCCCCCCCCCCCCCCCCCOc1cc(-c2ccccc2)c(OCC(=O)O)c(-c2ccccc2)c1 [Example 36, (5′-Octadecyloxy-[1,1′;3′,1″]terphenyl-2′-yloxy)-acetic acid]
17 nM	132.5 to 133.7 °C	CCCCCCCCCCCCCCCCNc1c(Nc2cc(-c3ccccc3)c(OCC(=O)O)c(-c3ccccc3)c2)c(=O)c1=O [Example 32, [5′-(2-Hexadecylamino-3,4-dioxo-cyclobut-1-enylamino)-[1,1′;3′,1″]terphenyl-2′-yloxy]-acetic acid]
